Experimental data as given in ChEMBL document CHEMBL5465560, “Selectivity Literature for EUbOPEN Chemogenomic Library” (2024).
Where a chain is given by its changes, count along the chain named.

What was measured:
[1] = target: T1, Muscle, skeletal receptor tyrosine-protein kinase (Homo sapiens) (UniProt O15146); experiment: Selectivity interaction (ProQinase) EUB0000171b MUSK
T1 sequence (whole entry): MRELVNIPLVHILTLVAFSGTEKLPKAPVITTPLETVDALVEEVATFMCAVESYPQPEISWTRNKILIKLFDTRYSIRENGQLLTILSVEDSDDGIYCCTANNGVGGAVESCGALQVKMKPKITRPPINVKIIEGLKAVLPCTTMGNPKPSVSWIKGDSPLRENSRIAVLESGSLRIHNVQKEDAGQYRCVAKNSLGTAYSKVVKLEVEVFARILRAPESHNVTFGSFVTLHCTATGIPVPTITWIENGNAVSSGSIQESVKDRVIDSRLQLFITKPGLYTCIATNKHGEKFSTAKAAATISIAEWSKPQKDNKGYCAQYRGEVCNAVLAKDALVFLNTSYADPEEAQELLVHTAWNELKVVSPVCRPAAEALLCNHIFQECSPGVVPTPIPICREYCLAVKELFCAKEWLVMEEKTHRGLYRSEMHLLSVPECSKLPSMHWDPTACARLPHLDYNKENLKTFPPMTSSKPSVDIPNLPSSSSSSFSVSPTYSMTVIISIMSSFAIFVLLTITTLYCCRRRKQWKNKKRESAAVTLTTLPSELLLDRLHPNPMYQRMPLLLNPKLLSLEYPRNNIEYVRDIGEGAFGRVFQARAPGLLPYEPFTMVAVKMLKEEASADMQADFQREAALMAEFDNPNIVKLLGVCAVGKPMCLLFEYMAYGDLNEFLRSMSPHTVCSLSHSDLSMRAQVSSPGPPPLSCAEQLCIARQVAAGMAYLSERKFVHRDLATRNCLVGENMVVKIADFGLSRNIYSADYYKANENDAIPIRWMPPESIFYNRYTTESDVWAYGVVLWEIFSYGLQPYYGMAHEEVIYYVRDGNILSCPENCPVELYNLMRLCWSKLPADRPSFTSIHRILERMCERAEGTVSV

[2] = system: T2, Receptor-type tyrosine-protein kinase FLT3 (Homo sapiens), P36888 [K663Q]; experiment: (§1) Selectivity interaction (KinomeScan (DiscoverX)) EUB0000607a FLT3; conditions: at 10 µM
T2 sequence (whole entry): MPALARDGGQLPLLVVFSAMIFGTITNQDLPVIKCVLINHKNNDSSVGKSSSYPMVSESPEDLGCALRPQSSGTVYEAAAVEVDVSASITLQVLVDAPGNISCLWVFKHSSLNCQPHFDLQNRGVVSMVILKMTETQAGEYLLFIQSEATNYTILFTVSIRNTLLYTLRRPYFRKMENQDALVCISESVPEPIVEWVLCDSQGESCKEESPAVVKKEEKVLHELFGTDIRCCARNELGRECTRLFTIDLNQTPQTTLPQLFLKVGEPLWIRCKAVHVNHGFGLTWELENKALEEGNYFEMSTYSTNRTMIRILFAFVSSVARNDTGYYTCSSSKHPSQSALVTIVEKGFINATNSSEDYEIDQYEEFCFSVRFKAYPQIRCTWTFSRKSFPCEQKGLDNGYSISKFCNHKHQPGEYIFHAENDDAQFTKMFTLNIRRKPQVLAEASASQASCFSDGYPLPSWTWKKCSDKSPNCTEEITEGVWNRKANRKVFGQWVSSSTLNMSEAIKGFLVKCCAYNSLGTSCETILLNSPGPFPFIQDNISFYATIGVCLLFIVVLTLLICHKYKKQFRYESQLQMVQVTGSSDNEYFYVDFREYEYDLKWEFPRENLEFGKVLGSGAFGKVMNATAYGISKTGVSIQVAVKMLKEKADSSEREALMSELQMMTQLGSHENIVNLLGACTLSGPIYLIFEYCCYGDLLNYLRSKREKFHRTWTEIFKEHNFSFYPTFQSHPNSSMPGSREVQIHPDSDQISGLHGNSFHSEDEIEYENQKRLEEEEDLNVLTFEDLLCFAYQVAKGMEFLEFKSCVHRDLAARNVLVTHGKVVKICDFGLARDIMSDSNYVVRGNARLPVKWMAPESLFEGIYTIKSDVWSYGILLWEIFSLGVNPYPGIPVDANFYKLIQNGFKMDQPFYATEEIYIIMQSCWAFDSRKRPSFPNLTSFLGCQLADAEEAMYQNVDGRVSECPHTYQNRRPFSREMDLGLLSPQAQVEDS

[3] = system: T3, Receptor-type tyrosine-protein kinase FLT3 (Homo sapiens), P36888 [N841I]; experiment: as §1; conditions: at 10 µM
T3 sequence (whole entry): T2 sequence (whole entry) with Q663K, N841I

[4] = system: Receptor-type tyrosine-protein kinase FLT3 (Homo sapiens), P36888 [UNDEFINED MUTATION]; experiment: as §1; conditions: at 10 µM

| % of control ([1]; at 1 µM) [%] | % of control ([1]; at 5 µM) [%] | Structure (SMILES) | % of control [2] [%] | % of control [3] [%] | % of control [4] [%] |
| --- | --- | --- | --- | --- | --- |
| 74 | 31 | C=CC(=O)Nc1cccc(C(=O)Nc2ccc(Nc3cc(-c4[nH]c(SC)nc4C)ccn3)cc2)c1 |  |  |  |
|  |  | CNC(=O)Nc1ccc(-c2nc(N3CC4CCC(C3)O4)c3cnn(C4CCC5(CC4)OCCO5)c3n2)cc1 | 69 | 89 | 100 |
